The results in this text go back to ChEMBL document CHEMBL6127036, “Chaperoning system: Intriguing target to modulate the expression of CFTR in cystic fibrosis” (Eur J Med Chem, 2024).

Assay [1] concerns the target Cystic fibrosis transmembrane conductance regulator (Homo sapiens) (UniProt P13569). Put plainly: Inhibition of CFTR (unknown origin) at 10 uM relative to control.
A short description of assay [2]: Inhibition of HSP70 (unknown origin) expressed in human HeLa cells. The class given is cell-based.
Assay [3] deals with Cystic fibrosis transmembrane conductance regulator (Homo sapiens), P13569 [F508del]. The assay is described as follows: Inhibition of CFTR F508del mutant (unknown origin) in FRT cells. In kind it is cell-based.
Sequence of Cystic fibrosis transmembrane conductance regulator (Homo sapiens), P13569 [F508del] (P13569 as listed by the source): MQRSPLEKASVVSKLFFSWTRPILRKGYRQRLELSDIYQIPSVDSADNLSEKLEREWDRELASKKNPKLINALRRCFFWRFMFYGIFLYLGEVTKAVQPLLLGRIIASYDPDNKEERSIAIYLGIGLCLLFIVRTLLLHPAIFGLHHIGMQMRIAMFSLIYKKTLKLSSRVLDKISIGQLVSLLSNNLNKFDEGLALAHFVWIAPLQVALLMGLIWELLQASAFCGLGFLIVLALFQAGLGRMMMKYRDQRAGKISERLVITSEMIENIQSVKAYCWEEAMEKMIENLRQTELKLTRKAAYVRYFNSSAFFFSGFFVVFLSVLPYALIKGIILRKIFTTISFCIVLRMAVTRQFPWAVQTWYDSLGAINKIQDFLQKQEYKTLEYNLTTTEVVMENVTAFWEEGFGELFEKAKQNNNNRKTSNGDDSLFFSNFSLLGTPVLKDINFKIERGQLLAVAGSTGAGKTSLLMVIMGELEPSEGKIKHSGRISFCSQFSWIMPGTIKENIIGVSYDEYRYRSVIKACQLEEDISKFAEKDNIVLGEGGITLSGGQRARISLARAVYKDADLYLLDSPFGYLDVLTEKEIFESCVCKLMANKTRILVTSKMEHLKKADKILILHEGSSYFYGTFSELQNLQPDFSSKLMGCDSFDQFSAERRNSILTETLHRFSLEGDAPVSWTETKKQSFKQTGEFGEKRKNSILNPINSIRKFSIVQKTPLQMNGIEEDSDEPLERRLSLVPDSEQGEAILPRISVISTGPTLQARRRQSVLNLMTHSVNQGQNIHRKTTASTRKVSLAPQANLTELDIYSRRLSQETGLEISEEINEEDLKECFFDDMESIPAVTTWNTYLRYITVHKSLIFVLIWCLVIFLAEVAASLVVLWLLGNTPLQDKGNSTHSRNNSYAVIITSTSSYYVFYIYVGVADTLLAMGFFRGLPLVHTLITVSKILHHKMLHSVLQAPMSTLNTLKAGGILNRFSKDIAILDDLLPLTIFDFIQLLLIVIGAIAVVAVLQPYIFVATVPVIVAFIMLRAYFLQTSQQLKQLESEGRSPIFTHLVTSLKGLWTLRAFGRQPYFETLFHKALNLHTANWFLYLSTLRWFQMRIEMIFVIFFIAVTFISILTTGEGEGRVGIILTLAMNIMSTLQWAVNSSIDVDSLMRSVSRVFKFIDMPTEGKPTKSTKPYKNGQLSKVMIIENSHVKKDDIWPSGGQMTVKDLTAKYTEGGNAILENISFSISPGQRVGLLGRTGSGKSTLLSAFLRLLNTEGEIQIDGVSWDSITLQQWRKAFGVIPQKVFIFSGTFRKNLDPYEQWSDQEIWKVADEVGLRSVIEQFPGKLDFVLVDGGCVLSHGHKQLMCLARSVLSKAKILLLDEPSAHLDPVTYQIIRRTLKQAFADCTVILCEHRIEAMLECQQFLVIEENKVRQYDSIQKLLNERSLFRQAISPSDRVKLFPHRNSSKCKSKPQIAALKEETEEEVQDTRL
For assay [4], the target named is Cystic fibrosis transmembrane conductance regulator (Homo sapiens) (UniProt P13569). The assay is described as follows: Activation of human CFTR expressed in rat FRT cells at 30 uM relative to control. The class given is cell-based. To be noted: filed as activator.
Sequence of Cystic fibrosis transmembrane conductance regulator (Homo sapiens) (P13569 whole entry, looked up): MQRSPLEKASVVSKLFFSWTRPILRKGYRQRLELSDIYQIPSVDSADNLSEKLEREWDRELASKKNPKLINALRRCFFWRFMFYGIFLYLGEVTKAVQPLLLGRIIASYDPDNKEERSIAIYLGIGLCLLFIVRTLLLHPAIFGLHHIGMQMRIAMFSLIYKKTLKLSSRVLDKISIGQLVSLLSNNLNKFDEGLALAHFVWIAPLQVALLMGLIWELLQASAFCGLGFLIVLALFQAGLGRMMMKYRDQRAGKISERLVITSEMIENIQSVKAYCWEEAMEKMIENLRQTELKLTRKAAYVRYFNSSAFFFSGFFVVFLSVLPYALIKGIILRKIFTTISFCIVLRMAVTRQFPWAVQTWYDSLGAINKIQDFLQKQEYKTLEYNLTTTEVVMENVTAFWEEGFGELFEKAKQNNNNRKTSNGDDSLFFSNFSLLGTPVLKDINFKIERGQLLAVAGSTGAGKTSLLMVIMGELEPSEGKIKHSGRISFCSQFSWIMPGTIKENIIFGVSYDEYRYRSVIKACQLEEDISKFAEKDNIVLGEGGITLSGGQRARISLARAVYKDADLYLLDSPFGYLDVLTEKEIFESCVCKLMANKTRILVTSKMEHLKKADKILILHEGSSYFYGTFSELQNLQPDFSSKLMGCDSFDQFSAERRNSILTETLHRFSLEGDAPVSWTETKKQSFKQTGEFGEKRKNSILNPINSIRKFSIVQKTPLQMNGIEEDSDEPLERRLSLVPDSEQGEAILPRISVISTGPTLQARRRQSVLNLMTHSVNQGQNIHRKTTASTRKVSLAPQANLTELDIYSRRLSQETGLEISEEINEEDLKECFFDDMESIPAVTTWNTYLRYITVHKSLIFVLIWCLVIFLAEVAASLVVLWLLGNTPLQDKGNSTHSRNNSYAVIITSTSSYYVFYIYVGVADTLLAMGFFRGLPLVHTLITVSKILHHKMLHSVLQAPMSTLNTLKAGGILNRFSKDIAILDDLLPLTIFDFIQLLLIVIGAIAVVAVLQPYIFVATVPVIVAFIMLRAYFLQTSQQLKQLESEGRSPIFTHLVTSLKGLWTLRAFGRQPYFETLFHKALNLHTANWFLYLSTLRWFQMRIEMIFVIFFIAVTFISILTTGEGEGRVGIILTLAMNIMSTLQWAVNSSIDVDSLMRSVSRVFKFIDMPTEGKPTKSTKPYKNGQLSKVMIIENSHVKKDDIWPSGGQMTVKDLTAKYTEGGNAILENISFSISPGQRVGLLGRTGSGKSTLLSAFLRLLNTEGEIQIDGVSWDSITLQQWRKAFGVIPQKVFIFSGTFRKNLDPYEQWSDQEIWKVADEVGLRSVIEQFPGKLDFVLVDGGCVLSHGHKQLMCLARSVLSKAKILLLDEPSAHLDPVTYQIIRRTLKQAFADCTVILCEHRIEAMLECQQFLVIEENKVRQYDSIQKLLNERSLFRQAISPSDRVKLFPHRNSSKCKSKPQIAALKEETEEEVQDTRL

The molecule `N#CC1=C(N)Oc2[nH]nc(-c3ccc(F)cc3)c2C1c1c[nH]nc1-c1ccc(F)cc1` (stereo unspecified) showed an inhibition in assay [1] of 70%.

In assay [2], `N=C(N)NCCCC[C@H](O)CC(=O)N[C@@H](O)C(=O)NCCCCNCCCN` gave a concentration for a half-maximal effect (EC50) of 5.4 µM.

In assay [3], `N#CCc1nnc(-c2ccccn2)[nH]1` showed a fold change (FC) of 25.

`N=C(N)NCCCCCCC(=O)N[C@@H](O)C(=O)NCCCCNCCCN`: the EC50 in assay [2] was determined as 5.4 µM.

In assay [4], `O=C1CCC[C@@H]2[C@H]3CCCN4CCC[C@@H](CN12)[C@@H]34` showed an Activity of 53%.

Regarding `CCN(CC)c1ccc(N/N=C2\C(=O)C=Cc3ccccc32)cc1`, the fold change (FC) in assay [3] came to 15.

One may read the inhibition as the relative decrease from the control value, in per cent. As a reminder, the EC50 is the concentration at which the effect is half-maximal.
